Assay results as given in patent publication US11583531B2, “Solid forms of a toll-like receptor modulator” (Gilead Sciences, Inc., priority 2019, dated 2023).

Assay: Dynamic vapor sorption (moisture sorption/desorption)
Assay type: physicochemical
Conditions: for solid form after the DVS experiment (form stability): post-DVS analysis, 5% to 95% RH cycle; for water absorbed (dynamic vapor sorption): up to 95% RH at 25° C.
Procedure: Moisture sorption/desorption data were collected on a VTI SGA-100 Vapor Sorption Analyzer. NaCl and PVP were used as calibration standards. Samples were not dried prior to analysis. Sorption and desorption data were collected over a range from 5% to 95% RH at 10% RH increments under a nitrogen purge. The equilibrium criterion used for analysis was less than 0.0100% weight change in 5 minutes with a maximum equilibration time of 3 hours. Weight percentages reported in the data section are relative to the total sample mass introduced prior to equilibration at 5% RH as measured on the instrument.

Compound	solid form after the DVS experiment (form stability)	water absorbed (dynamic vapor sorption)	also measured
CCCC[C@](C)(CO)Nc1nc(N)nc2cc(F)cnc12.Cl [Compound I HCl Form I, (R)-2-((2-amino-7-fluoropyrido[3,2-d]pyrimidin-4-yl)amino)-2-methylhexan-1-ol hydrochloride]	–	–	hygroscopicity by dynamic vapor sorption (5% to 95% RH): hygroscopic; further weight loss, desorption curve (below 65% RH down to 5% RH): No further weight % loss was observed; weight gain, sorption cycle (between 5% and 55% RH): approximately 0.6%; weight gain, sorption cycle (between 65% RH and 95% RH): approximately 28.1%; weight loss, desorption curve (between 85% and 65% RH): 1.8%; weight loss, desorption curve (from 95% to 85% RH): approximately 11.2%; solid form after the DVS experiment (form stability) (hydrochloride): composed of a new crystalline material, designated Compound I Hydrochloride Form II
CCCC[C@](C)(CO)Nc1nc(N)nc2cc(F)cnc12.Cl [Compound I HCl Form II, (R)-2-((2-amino-7-fluoropyrido[3,2-d]pyrimidin-4-yl)amino)-2-methylhexan-1-ol hydrochloride]	–	–	weight gain, sorption cycle (from 5% to 95% RH): approximately 19.8%; solid form after the DVS experiment (form stability) (hydrochloride): not have changed forms
CCCC[C@](C)(CO)Nc1nc(N)nc2cc(F)cnc12.CS(=O)(=O)O [Compound I Methanesulfonic Acid, (R)-2-((2-amino-7-fluoropyrido[3,2-d]pyrimidin-4-yl)amino)-2-methylhexan-1-ol methanesulfonic acid]	not have changed forms	about 38%	–

Now from value to molecule, other results behind:

solid form after the DVS experiment (form stability)	water absorbed (dynamic vapor sorption)	Compound	also measured
not have changed forms	about 0.89%	CCCC[C@](C)(CO)Nc1nc(N)nc2cc(F)cnc12 [Compound I Form I, (R)-2-((2-amino-7-fluoropyrido[3,2-d]pyrimidin-4-yl)amino)-2-methylhexan-1-ol]	–
not have changed forms	about 2.3%	CCCC[C@](C)(CO)Nc1nc(N)nc2cc(F)cnc12.O=C(O)/C=C/C(=O)O [Compound I Fumaric Acid, (R)-2-((2-amino-7-fluoropyrido[3,2-d]pyrimidin-4-yl)amino)-2-methylhexan-1-ol fumaric acid]	–
not have changed forms	about 0.11%	CCCC[C@](C)(CO)Nc1nc(N)nc2cc(F)cnc12.O=C(O)/C=C\C(=O)O [Compound I Maleic Acid, (R)-2-((2-amino-7-fluoropyrido[3,2-d]pyrimidin-4-yl)amino)-2-methylhexan-1-ol maleic acid]	–
not have changed forms	about 1.5%	CCCC[C@](C)(CO)Nc1nc(N)nc2cc(F)cnc12.O=C(O)C(O)C(O)C(=O)O [Compound I Tartaric Acid, (R)-2-((2-amino-7-fluoropyrido[3,2-d]pyrimidin-4-yl)amino)-2-methylhexan-1-ol tartaric acid]	–
